This note sets out measurements from US20240101570A1 (AMGEN INC., priority 2020, published 2024).

For assay [1], the system named is HCT116 WT cells. The experiment in a line: HCT116 WT cell proliferation / viability (CellTiter-Glo, 6 days). Format: cell-based. Particulars: HCT116 WT cells, 6 days, CellTiter-Glo, read-out: HCT-116 WT IC50. The procedure, abridged: (§1)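 CellTiter-Glo luminescence, 6-day exposure, RPMI 1640 + 10% FBS. Dosing: 1:3 series (8-9 pts, top 1 or 10 μM) or 1:2 series (22 pts, top 10 or 50 μM), DMSO control. IC50 = 50% of control via curve fit.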
(In general: In ATP-based viability assays light output follows the ATP content of the culture.)

Assay [2] concerns HCT116 MTAP null cells. The assay is described as follows: HCT116 MTAP null cell proliferation / viability (CellTiter-Glo, 6 days). Particulars: HCT116 MTAP null cells, 6 days, CellTiter-Glo, read-out: HCT-116 MTAP null IC50. In kind it is cell-based. In a few lines:
as §1

Where two headings read alike, the source gives them in different places.

As a reminder, the IC50 is the midpoint of a concentration-inhibition curve. On to `CC[C@@H](c1ccc(C(F)(F)F)cn1)N(C)C(=O)c1cc2c3c(c(N)nc2cn1)COC3` (single isomer, unassigned) [Example 850], for which the IC50 in assay [1] (Homo sapiens, HCT-116, 144 h) is over 50000 nM; in assay [2] (HCT116-MTAP null, 144 h), 8340 nM.
Consider `CC1OCc2c1c(N)nc1ccc(C(=O)N(Cc3ccc(C#N)cn3)C3CCCC3C#N)cc21` (stereo not drawn) [Example 898, 4-amino-N-(2-cyanocyclopentyl)-N-((5-cyanopyridin-2-yl)methyl)-3-methyl-1,3-dihydrofuro[3,4-c]quinoline-8-carboxamide], for which the IC50 is 290 nM in assay [1] (Homo sapiens, HCT-116, 144 h) and 52 nM in assay [2] (HCT116-MTAP null, 144 h).
Regarding `Cn1ncc2c(N)nc3cc(F)c(C(=O)N(Cc4cocn4)C4CCC4)cc3c21` [Example 801, 4-amino-N-cyclobutyl-7-fluoro-1-methyl-N-(1,3-oxazol-4-ylmethyl)-1H-pyrazolo[4,3-c]quinoline-8-carboxamide], the IC50 turned out to be 13600 nM in assay [1] (Homo sapiens, HCT-116, 144 h) and 153 nM in assay [2] (HCT116-MTAP null, 144 h).
Regarding `CO[C@@H]1CCOC[C@H]1N(Cc1ccc(C#N)c(C)n1)C(=O)c1ccc2nc(N)c3c(c2c1)COC3` (single isomer, unassigned) [Example 583], the IC50 in assay [1] stood at 4820 nM; in assay [2], 173 nM.
In the case of `C[C@H](c1ccc(C(F)(F)F)cn1)N(C)C(=O)c1ccc2nc(N)c3c(c2c1)CO[C@@H]3C` (single isomer, unassigned) [Example 851], the half-inhibitory concentration (IC50) is 4000 nM in assay [1] (Homo sapiens, HCT-116, 144 h) and 47 nM in assay [2] (HCT116-MTAP null, 144 h).
The like results for `Nc1nc2cc(F)c(C(=O)N(Cc3ccc(OCC(F)(F)F)nn3)CC3CC3)cc2c2c1COC2` [Example 816, 4-amino-N-(cyclopropylmethyl)-7-fluoro-N-((6-(2,2,2-trifluoroethoxy)-3-pyridazinyl)methyl)-1,3-dihydrofuro[3,4-c]quinoline-8-carboxamide] were, in that order, 2490 nM and 78 nM.
The like results for `COc1nc(CN(C(=O)c2cc3c4c(c(N)nc3cn2)COC4)C(C)C)ccc1Cl` [Example 685, 4-amino-N-((5-chloro-6-methoxy-2-pyridinyl)methyl)-N-(2-propanyl)-1,3-dihydrofuro[3,4-c][1,7]naphthyridine-8-carboxamide] were, in that order, over 10000 nM and 201 nM.
The like results for `C[C@H](c1ccc(S(F)(F)(F)(F)F)cc1)N(C)C(=O)c1cc2c(cc1F)nc(N)c1cnn(C)c12` (single isomer, unassigned) [Example 870] were, in that order, 162 nM and 7 nM.
Consider `C[C@H](c1ccc(C(F)(F)F)cn1)N(C(=O)c1ccc2nc(N)c3c(c2c1)COC3)C1CC1` [Example 736, 4-amino-N-cyclopropyl-N-((1R)-1-(5-(trifluoromethyl)-2-pyridinyl)ethyl)-1,3-dihydrofuro[3,4-c]quinoline-8-carboxamide], for which the IC50 in assay [1] (Homo sapiens, HCT-116, 144 h) came to 4890 nM; in assay [2] (HCT116-MTAP null, 144 h) it was 127 nM.
The like results for `C[C@H](c1cnc(C(F)(F)F)cn1)N(C)C(=O)c1cc2c(cc1F)nc(N)c1cnn(C)c12` [Example 780, 4-amino-7-fluoro-N,1-dimethyl-N-((1R)-1-(5-(trifluoromethyl)-2-pyrazinyl)ethyl)-1H-pyrazolo[4,3-c]quinoline-8-carboxamide] were, in that order, 1180 nM and 22 nM.
As for `CC(CF)N(Cc1ccc(C#N)cn1)C(=O)c1cc2c3c(c(N)nc2cn1)COC3` (racemic) [Example 687, 4-amino-N-((5-cyano-2-pyridinyl)methyl)-N-((2R)-1-fluoro-2-propanyl)-1,3-dihydrofuro[3,4-c][1,7]naphthyridine-8-carboxamide and 4-amino-N-((5-cyano-2-pyridinyl)methyl)-N-((2S)-1-fluoro-2-propanyl)-1,3-dihydrofuro[3,4-c][1,7]naphthyridine-8-carboxamide], the IC50 in assay [1] (Homo sapiens, HCT-116, 144 h) was over 10000 nM; in assay [2] (HCT116-MTAP null, 144 h) it was over 10000 nM.
Consider `CCN(Cc1ccc(C(F)(F)F)cn1)C(=O)c1cc2c3c(c(N)nc2cn1)COC3` [Example 361, 4-amino-N-ethyl-N-((5-(trifluoromethyl)-2-pyridinyl)methyl)-1,3-dihydrofuro[3,4-c][1,7]naphthyridine-8-carboxamide], for which the IC50 in assay [1] (Homo sapiens, HCT-116, 144 h) worked out at 7750 nM; in assay [2] (HCT116-MTAP null, 144 h) it was 173 nM.
